A short description of this data set: Concentration of rapamycin in the vitreous of rabbit eyes after intravitreal injection of the self-emulsifying formulation (LCMS). Type of data set: in vivo, New Zealand white rabbits. As to conditions: full vitreous homogenized, average of four eyes. Here is the method: 50 μl of the formulation described in Example 1 were injected into the vitreous of the eye of New Zealand white rabbits. The full vitreous, which included the area into which the self-emulsifying formulation was injected, was homogenized and analyzed at 1, 5, 24, 72 and 168 hours for the concentration of rapamycin remaining therein. The average concentration of the vitreous was calculated by dividing the mass of rapamycin measured by the volume of vitreous analyzed. The analysis was by liquid chromatography mass spectroscopy (LCMS). Each timepoint represents the average of two eyes of each of two rabbits (four eyes at each timepoint).
The average concentration of rapamycin at 1, 5, 24, 72 and 168 hours was about 347, about 401, about 273, about 18, and about 1 μg/μl, respectively.

Consider `CO[C@H]1C[C@@H]2CC[C@@H](C)[C@@](O)(O2)C(=O)C(=O)N2CCCC[C@H]2C(=O)O[C@H]([C@H](C)C[C@@H]2CC[C@@H](O)[C@H](OC)C2)CC(=O)[C@H](C)/C=C(\C)[C@@H](O)[C@@H](OC)C(=O)[C@H](C)C[C@H](C)/C=C/C=C/C=C/1C` [rapamycin], for which the “average concentration of rapamycin in the vitreous” value reads like this: (1 hour after injection of 50 μl of the Example 1 formulation into the vitreous) “about 347 μg/μl”; (5 hours after injection of 50 μl of the Example 1 formulation into the vitreous) “about 401 μg/μl”; (24 hours after injection of 50 μl of the Example 1 formulation into the vitreous) “about 273 μg/μl”; (72 hours after injection of 50 μl of the Example 1 formulation into the vitreous) “about 18 μg/μl”. Also, for the setting “New Zealand white, rabbit, vitreous (full vitreous homogenate), other: intravitreal injection, 168 hours after injection of 50 μl of the Example 1 formulation into the vitreous”, the concentration at 168 h was ~1000 µg/mL.

These data come from patent US20060182771A1, “Formulations for ocular treatment” (priority 2005, published 2006).
